Data reported in patent publication EP1943275B1, “INSULINOTROPIC COMPOUNDS AND USES THEREOF” (Activotec SPP Limited, priority 2005, dated 2010).
Ends that are not written are not given here.

Tests used:
[1] = active form of GLP-1; DPP IV cleavage between Ala8 and Glu9; cited from earlier work
DPP-IV = experiment: Dipeptidyl peptidase IV (DPP-IV) assays (Example 10): DPP-IV digestion monitored by RP-HPLC; assay type: in vitro ADME; details: PBS/TEthA, pH 7.5, 37°
Text: Their stabilities were monitored by RP-HPLC, noting the disappearance of the intact sequence and appearance of a species missing the N terminal dipeptide or similar fragment.

[2] = Control study: chemical stability in PBS/triethanolamine solution in the absence of DPP-IV; assay type: physicochemical; details: no DPP-IV; for percentage of each analogue remaining: PBS/TEthA, pH 7.5, 37°
Experimental: In the control study, peptides were incubated with PBS/triethanolamine solution in the absence of DPP-IV to measure their chemical stability.

dipeptidyl peptidase IV = experiment: DPP-IV assay (Example 5): hydrolysis followed by HPLC and ES-MS; assay type: in vitro ADME; details: After 18 hr incubation, 37°C, 50 mM triethanolamine buffer, pH 7.8, 11 milliunits DPP-IV
Experimental: Biological Chemistry. 385, pp 169-177.
Briefly, 100 - 200 microgams of each peptide was dissolved in 0.5 ml of 50 mM triethanolamine buffer, pH 7.8. To this was added a 10 microlitre solution of 11 milliunits DPP-IV (Sigma) and the solutions incubated at 37°C for up to 42 hours. […] The incubations were terminated by addition of 5 microlitres TFA to each tube and 50 microlitre of each were injected onto a reversed phase 4.6 x 250 mm C18 HPLC column, eluting a gradient of 20% - 45% acetonitrile in 0.1 % TFA/water over 25 minutes. […] After 42 hours, the 2 analogues slowly degraded to a product that gave a mass spectrum consistent with the mass of the 9-37 sequence, indicating longer term instability of the urea bond. This represented as much as 15% of the product by HPLC. This degradation appeared to be non-DPP-IV related, since samples without enzyme gave the same profile.

Molecule	percentage of each analogue remaining (DPP-IV; Time 0 hr) [%]	percentage of each analogue remaining (DPP-IV; Time 22 hr) [%]	percentage of each analogue remaining ([2]; Time 0 hr) [%]	percentage of each analogue remaining ([2]; Time 22 hr) [%]	percentage of each analogue remaining ([2]; Time 47 hr) [%]	non-enzymatic degradation ([2]; after 47 hr, by HPLC)	cleavage of the N terminal dipeptide by DPP-IV (dipeptidyl peptidase IV)	circulating half-life [1]
CC[C@H](C)[C@H](NC(=O)[C@H](Cc1ccccc1)NC(=O)[C@H](CCC(=O)O)NC(=O)[C@H](CCCCN)NC(=O)[C@H](C)NC(=O)[C@H](C)NC(=O)[C@H](CCC(N)=O)NC(=O)CNC(=O)[C@H](CCC(=O)O)NC(=O)[C@H](CC(C)C)NC(=O)[C@H](Cc1ccc(O)cc1)NC(=O)[C@H](CO)NC(=O)[C@H](CO)NC(=O)[C@@H](NC(=O)[C@H](CC(=O)O)NC(=O)[C@H](CO)NC(=O)[C@@H](NC(=O)[C@H](Cc1ccccc1)NC(=O)[C@@H](NC(=O)CNC(=O)[C@H](CCC(=O)O)NC(=O)[C@H](C)NC(=O)[C@@H](N)Cc1c[nH]cn1)[C@@H](C)O)[C@@H](C)O)C(C)C)C(=O)N[C@@H](C)C(=O)N[C@@H](Cc1c[nH]c2ccccc12)C(=O)N[C@@H](CC(C)C)C(=O)N[C@H](C(=O)N[C@@H](CCCCN)C(=O)NCC(=O)N[C@@H](CCCN=C(N)N)C(=O)NCC(=O)O)C(C)C [Native GLP-1 7-37, glucagon-like peptide-1 (7-37)]								less than 2 minutes
HAEGTFTSDVSSYLEG [GLP-1 7-22]							completely cleaved	

Continued, in another order:

percentage of each analogue remaining (DPP-IV; Time 0 hr) [%]	percentage of each analogue remaining (DPP-IV; Time 22 hr) [%]	percentage of each analogue remaining ([2]; Time 0 hr) [%]	percentage of each analogue remaining ([2]; Time 22 hr) [%]	percentage of each analogue remaining ([2]; Time 47 hr) [%]	non-enzymatic degradation ([2]; after 47 hr, by HPLC)	cleavage of the N terminal dipeptide by DPP-IV (dipeptidyl peptidase IV)	Molecule	circulating half-life [1]
95	95	98	95				CC[C@H](C)[C@H](NC(=O)[C@H](Cc1ccccc1)NC(=O)[C@H](CCC(=O)O)NC(=O)[C@H](CCCCN)NC(=O)[C@H](C)NC(=O)[C@H](C)NC(=O)[C@H](CCC(N)=O)NC(=O)CNC(=O)[C@H](CCC(=O)O)NC(=O)[C@H](CC(C)C)NC(=O)[C@H](Cc1ccc(O)cc1)NC(=O)[C@H](CO)NC(=O)[C@H](CO)NC(=O)[C@@H](NC(=O)[C@H](CC(=O)O)NC(=O)[C@H](CO)NC(=O)[C@@H](NC(=O)[C@H](Cc1ccccc1)NC(=O)[C@@H](NC(=O)CNC(=O)[C@H](CCC(=O)O)NC(=O)CONC[C@H](C)NC(=O)[C@@H](N)Cc1c[nH]cn1)[C@@H](C)O)[C@@H](C)O)C(C)C)C(=O)N[C@@H](C)C(=O)N[C@@H](Cc1c[nH]c2ccccc12)C(=O)N[C@@H](CC(C)C)C(=O)N[C@H](C(=O)N[C@@H](CCCCN)C(=O)NCC(=O)N[C@@H](CCCNC(=N)N)C(=O)NCC(=O)O)C(C)C [SP005]	
95		98					CC[C@H](C)[C@H](NC(=O)[C@H](Cc1ccccc1)NC(=O)[C@H](CCC(=O)O)NC(=O)[C@H](CCCCN)NC(=O)[C@H](C)NC(=O)[C@H](C)NC(=O)[C@H](CCC(N)=O)NC(=O)CNC(=O)[C@H](CCC(=O)O)NC(=O)[C@H](CC(C)C)NC(=O)[C@H](Cc1ccc(O)cc1)NC(=O)[C@H](CO)NC(=O)[C@H](CO)NC(=O)[C@@H](NC(=O)[C@H](CC(=O)O)NC(=O)[C@H](CO)NC(=O)[C@@H](NC(=O)[C@H](Cc1ccccc1)NC(=O)[C@@H](NC(=O)CNC(=O)[C@H](CCC(=O)O)NC(=O)CNNC(=O)[C@@H](N)Cc1c[nH]cn1)[C@@H](C)O)[C@@H](C)O)C(C)C)C(=O)N[C@@H](C)C(=O)N[C@@H](Cc1c[nH]c2ccccc12)C(=O)N[C@@H](CC(C)C)C(=O)N[C@H](C(=O)N[C@@H](CCCCN)C(=O)NCC(=O)N[C@@H](CCCNC(=N)N)C(=O)NCC(=O)O)C(C)C [SP006, L-His-NH-NH-CH2-C(O)-Glu9-37]	
95	<5	98	95	95			CC[C@H](C)[C@H](NC(=O)[C@H](Cc1ccccc1)NC(=O)[C@H](CCC(=O)O)NC(=O)[C@H](CCCCN)NC(=O)[C@H](C)NC(=O)[C@H](C)NC(=O)[C@H](CCC(N)=O)NC(=O)CNC(=O)[C@H](CCC(=O)O)NC(=O)[C@H](CC(C)C)NC(=O)[C@H](Cc1ccc(O)cc1)NC(=O)[C@H](CO)NC(=O)[C@H](CO)NC(=O)[C@@H](NC(=O)[C@H](CC(=O)O)NC(=O)[C@H](CO)NC(=O)[C@@H](NC(=O)[C@H](Cc1ccccc1)NC(=O)[C@@H](NC(=O)CNC(=O)[C@H](CCC(=O)O)NC(=O)CNNC(=O)[C@H](C)NC(=O)[C@@H](N)Cc1c[nH]cn1)[C@@H](C)O)[C@@H](C)O)C(C)C)C(=O)N[C@@H](C)C(=O)N[C@@H](Cc1c[nH]c2ccccc12)C(=O)N[C@@H](CC(C)C)C(=O)N[C@H](C(=O)N[C@@H](CCCCN)C(=O)NCC(=O)N[C@@H](CCCNC(=N)N)C(=O)NCC(=O)O)C(C)C [SP007, L-His-L-Ala-NH-NH-CH2-C(O)-Glu9-37]	
95	95	98			20-25%		CC[C@H](C)[C@H](NC(=O)[C@H](Cc1ccccc1)NC(=O)[C@H](CCC(=O)O)NC(=O)[C@H](CCCCN)NC(=O)[C@H](C)NC(=O)[C@H](C)NC(=O)[C@H](CCC(N)=O)NC(=O)CNC(=O)[C@H](CCC(=O)O)NC(=O)[C@H](CC(C)C)NC(=O)[C@H](Cc1ccc(O)cc1)NC(=O)[C@H](CO)NC(=O)[C@H](CO)NC(=O)[C@@H](NC(=O)[C@H](CC(=O)O)NC(=O)[C@H](CO)NC(=O)[C@@H](NC(=O)[C@H](Cc1ccccc1)NC(=O)[C@@H](NC(=O)CNC(=O)[C@H](CCC(=O)O)NC(=O)[C@H](C)NNC(=O)[C@@H](N)Cc1c[nH]cn1)[C@@H](C)O)[C@@H](C)O)C(C)C)C(=O)N[C@@H](C)C(=O)N[C@@H](Cc1c[nH]c2ccccc12)C(=O)N[C@@H](CC(C)C)C(=O)N[C@H](C(=O)N[C@@H](CCCCN)C(=O)NCC(=O)N[C@@H](CCCNC(=N)N)C(=O)NCC(=O)O)C(C)C [SP008, L-His-NH-NH-CH(CH3)-C(O)-Glu9-37]	
